Source: PubChem BioAssay AID1918958 (Molecular Pharmacology Branch, DTP, NCI, 2023)
“And” between values parts separate entries of the source, which are not always exact repeats. Equal entries are not always repeated.

System: NCI-H196 complex spheroid viability
Assay: Anticancer human tumor NCI-H196 cell line growth inhibition [LSD1];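 also: spheroids exposed to agents for 7 days before readout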;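 as to viability, T/C: 100% = DMSO vehicle control viability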
Conditions: for viability, T/C: stronger effect = lower value
Source text: Multicellular complex tumor spheroid response to LSD1 Inhibitor Iadademstat in combination with a variety of drugs and investigational agents in selected tumor cell lines
The current study was undertaken to assess response to LSD1 inhibitors in combination with standard-of-care drugs and investigational agents in solid tumor complex spheroid models as well as in the K-562 leukemia. Complex spheroids include a stromal component modeled by human endothelial cells (HUVEC) and fibroblasts modeled by human mesenchymal stem cells (MSCs). The concentration ranges selected for each drug and investigational agent were based upon clinically achievable concentrations if the clinical Cmax of the agent was known.
Compounds. The drugs and investigational agents used in this study are listed on Table 1. All of the agents used, including staurosporine (NSC755774) and gemcitabine (NSC613327), were obtained from the Developmental Therapeutics Program, NCI. FDA-approved anticancer drugs are available from the NCI at http://dtp.nci.nih.gov/branches/dscb/oncology_drugset_explanation.html. Drugs and investigational agents were >95% pure by proton nuclear magnetic resonance (NMR) and liquid chromatography/mass spectrometry (LC/MS). Stock solutions were prepared at 400x in DMSO, stored at -70 degrees C, and diluted in fresh medium prior to their use. The final concentration of DMSO in cell culture wells never exceeded 0.25% (v/v). The FDA-approved anticancer drug set is available from the Developmental Therapeutics Program at https://dtp.cancer.gov/organization/dscb/obtaining/available_plates.htm. All drugs and investigational agents were tested over a range starting from a high concentration at or near the clinical Cmax and decreasing in half-log increments. If the clinical Cmax for an agent had not been determined, the highest concentration tested was 10 microM.
Cell Lines. The patient-derived cancer cell (PDC) lines: 292921-168-R-J2-PDC, K24384-001-R-PDC, and 521955-158-R2-J5-PDC pancreatic carcinomas, 556581-035-R-J1 ovarian carcinoma, 324938-238-R-J1-PDC, 855422-203-R-J1-PDC and 883617-216-R-J1-PDC urothelial bladder carcinomas, 743489-274-T-PDC renal cell carcinoma, 138582-R-J1 Merkel cell tumor, K60290-347-R-J1 and K57222-313-R-J1-PDC glioblastomas, 653999-131-R-J2-PDC, LG0703-F948-PDC, and 349418-098-R-PDC non-small cell lung carcinomas, 885512-296-R-J2-PDC, 171881-019-R-J1-PDC breast carcinomas and 186277-243-T-J2-PDC and 233499-124-R-J2-PDC colon carcinomas were obtained from the NCI Patient-Derived Models Repository (PDMR, https://pdmr.cancer.gov). The established cell lines NCI/ADR-RES (RRID:CVCL_14520 and OVCAR-5 (RRID:CVCL_1628) ovarian carcinomas, 786-O (RRID:CVCL_1051) and A498 (RRID:CVCL_A498) renal cell carcinoma, NCI-H211 (ATCC, cat. CRL-5824; RRID:CVCL_1529), NCI-H196 (ATCC, cat. CRL-5823, RRID:CVCL_1509), SW 1271 (ATCC, cat. CRL-2177, RRID:CVCL_1716) and NCI-H1876 (ATCC, cat. CRL-5902, RRID:CVCL_1503) small cell lung carcinomas, MDA-MB-231 (RRID:CVCL_0062) and MDA-MB-468 (RRID:CVCL_0419)breast carcinomas (10-12). Pooled donor human umbilical vein endothelial cells (HUVEC, Lonza, cat. CC-2519) and human mesenchymal stem cells (hMSC, Lonza, cat. PT-2501) were purchased from Lonza (Walkersville, MD).
Cell Culture. All cells were maintained in an incubator at 37 degrees C and 5% CO2 with 95% humidity. The PDC lines were cultured according to standard operating procedures established by the NCI PDMR (https://pdmr.cancer.gov). Briefly all PDCs were thawed and cultured in Matrigel-coated flasks prepared with a working solution of 1X Ham's F-12 nutrient mix, without supplementation (Invitrogen, Waltham, MA, cat. 11765054), 100 U/mL penicillin-streptomycin (Invitrogen, cat. 15140122), and 2.5% Matrigel (Corning Inc., Corning, NY, cat. 354248) for the first three passages. […]

[1] = curve of first compound, second compound 0.1 µM
[2] = curve of first compound, second compound 0.316 µM
[3] = curve of first compound, second compound 1 µM
[4] = curve of first compound, second compound 3.16 µM
[5] = curve of first compound, second compound 10 µM
[6] = second compound 0.1 µM, first compound 0.0316 µM
[7] = second compound 0.1 µM, first compound 0.1 µM
[8] = second compound 0.1 µM, first compound 0.316 µM
[9] = second compound 0.1 µM, first compound 1 µM
[10] = second compound 0.316 µM, first compound 0.0316 µM
[11] = second compound 0.316 µM, first compound 0.1 µM
[12] = second compound 0.316 µM, first compound 0.316 µM
[13] = second compound 0.316 µM, first compound 1 µM
[14] = second compound 1 µM, first compound 0.0316 µM
[15] = second compound 1 µM, first compound 0.1 µM
[16] = second compound 1 µM, first compound 0.316 µM
[17] = second compound 1 µM, first compound 1 µM
[18] = second compound 3.16 µM, first compound 0.0316 µM
[19] = second compound 3.16 µM, first compound 0.1 µM
[20] = second compound 3.16 µM, first compound 0.316 µM
[21] = second compound 3.16 µM, first compound 1 µM
[22] = second compound 10 µM, first compound 0.0316 µM
[23] = second compound 10 µM, first compound 0.1 µM
[24] = second compound 10 µM, first compound 0.316 µM
[25] = second compound 10 µM, first compound 1 µM
[26] = second compound 0.1 µM, first compound 0.00316 µM
[27] = second compound 0.1 µM, first compound 0.01 µM
[28] = second compound 0.316 µM, first compound 0.00316 µM
[29] = second compound 0.316 µM, first compound 0.01 µM
[30] = second compound 1 µM, first compound 0.00316 µM
[31] = second compound 1 µM, first compound 0.01 µM
[32] = second compound 3.16 µM, first compound 0.00316 µM
[33] = second compound 3.16 µM, first compound 0.01 µM
[34] = second compound 10 µM, first compound 0.00316 µM
[35] = second compound 10 µM, first compound 0.01 µM

| SMILES | IC50 [1] [nM] | IC50 [2] [nM] | IC50 [3] [nM] | IC50 [4] [nM] | IC50 [5] [nM] | viability, T/C [6] [%] | viability, T/C [7] [%] | viability, T/C [8] [%] | viability, T/C [9] [%] | viability, T/C [10] [%] | viability, T/C [11] [%] | viability, T/C [12] [%] | viability, T/C [13] [%] | viability, T/C [14] [%] | viability, T/C [15] [%] | viability, T/C [16] [%] | viability, T/C [17] [%] | viability, T/C [18] [%] | viability, T/C [19] [%] | viability, T/C [20] [%] | other results |
| --- | --- | --- | --- | --- | --- | --- | --- | --- | --- | --- | --- | --- | --- | --- | --- | --- | --- | --- | --- | --- | --- |
| CC1COCCN1c1cc(C2(S(C)(=N)=O)CC2)nc(-c2ccnc3[nH]ccc23)n1 (configuration not stated) + NC1CCC(NC2CC2c2ccccc2)CC1 | > 10000 | > 10000 | > 10000 | > 10000 | > 10000 | 95.7 | 100 | 99 | 87.5 | 101 | 99.5 | 110 | 89.5 | 101 | 96.4 | 95.5 | 85.8 | 97.4 | 100 | 93.7 | viability, T/C (second compound 0.1 µM, first compound 3.16 µM): 89%; viability, T/C (second compound 0.1 µM, first compound 10 µM): 67.4%; viability, T/C (second compound 0.316 µM, first compound 3.16 µM): 88.3%; viability, T/C (second compound 0.316 µM, first compound 10 µM): 70.8%; viability, T/C (second compound 1 µM, first compound 3.16 µM): 79.5%; viability, T/C (second compound 1 µM, first compound 10 µM): 72.2%; viability, T/C [21]: 85.5%; viability, T/C (second compound 3.16 µM, first compound 3.16 µM): 79.5%; viability, T/C (second compound 3.16 µM, first compound 10 µM): 70.2%; viability, T/C [22]: 96.9%; viability, T/C [23]: 108%; viability, T/C [24]: 100%; viability, T/C [25]: 98%; viability, T/C (second compound 10 µM, first compound 3.16 µM): 77.3%; viability, T/C (second compound 10 µM, first compound 10 µM): 68.2% |
| CC1COCCN1c1cc(-c2ccnn2C)c2ccnc(-c3ccn[nH]3)c2n1 (configuration not stated) + NC1CC1c1ccc(-c2cccc(O)c2)cc1 | 368 | 176 | 96.1 | 212 | 168 | 72.5 | 57.1 | 49.8 | 43.2 | 71.4 | 55.4 | 45.4 | 38.4 | 65.5 | 51 | 51.4 | 45.9 | 70.9 | 56.1 | 47.7 | viability, T/C [26]: 79.2%; viability, T/C [27]: 74.4%; viability, T/C [28]: 72.4%; viability, T/C [29]: 78.7%; viability, T/C [30]: 85.6%; viability, T/C [31]: 87.6%; viability, T/C [32]: 86.6%; viability, T/C [33]: 83.5%; viability, T/C [21]: 41.5%; viability, T/C [34]: 89.4%; viability, T/C [35]: 81.2%; viability, T/C [22]: 79.3%; viability, T/C [23]: 55.2%; viability, T/C [24]: 43.5%; viability, T/C [25]: 40.9% |
| Nc1ncn(C2CC(O)C(CO)O2)c(=O)n1 (configuration not stated) | – | – | – | – | – | – | – | – | – | – | – | – | – | – | – | – | – | – | – | – | viability, T/C (compound 0.00316 µM): 106% and 105%; viability, T/C (compound 0.01 µM): 92.3% and 102%; viability, T/C (compound 0.0316 µM): 95.5% and 99.8%; viability, T/C (compound 0.1 µM): 101% and 103%; viability, T/C (compound 0.316 µM): 100% and 102%; viability, T/C (compound 1 µM): 93.5% and 97.9%; IC50 (curve of compound): > 1000 nM |
| Nc1ncn(C2CC(O)C(CO)O2)c(=O)n1 (configuration not stated) + NC1CC1c1ccc(-c2cccc(O)c2)cc1 | > 1000 | > 1000 | > 1000 | > 1000 | > 1000 | 99.7 | 87.9 | 99.5 | 97.9 | 98.9 | 89 | 94.2 | 97 | 98.7 | 91.2 | 96.4 | 97.7 | 98.1 | 88.9 | 106 | viability, T/C [26]: 98.6%; viability, T/C [27]: 99.9%; viability, T/C [28]: 97.5%; viability, T/C [29]: 95.6%; viability, T/C [30]: 98.4%; viability, T/C [31]: 100%; viability, T/C [32]: 96.4%; viability, T/C [33]: 95%; viability, T/C [21]: 95.9%; viability, T/C [34]: 105%; viability, T/C [35]: 106%; viability, T/C [22]: 96.3%; viability, T/C [23]: 98.4%; viability, T/C [24]: 95.4%; viability, T/C [25]: 95.2% |
